{"source": "patent US20140309295A1", "about": "“ANTIEPILEPTIC, HYPOCHOLESTEROLEMIC AND NEUROPROTECTIVE COMPOUND” (NEURON BIOPHARMA, S.A., priority 2009, published 2014)", "key": {"seladin-1/DHCR24 gene": {"system": "seladin-1/DHCR24 gene", "assay": "seladin-1/DHCR24 gene expression in brain of wild-type mice", "type": "in vivo", "settings": "50 mg/kg oral, 4 hours, male C57BL6 mice", "experimental": "A control group received only the vehicle, which consisted of 0.25% carboxy methylcellulose in physiological saline. 4 hours after the oral administrations, the animals were sacrificed under gas anesthesia with isoflurane and the brains, previously perfused with PBS, were removed and immediately afterwards frozen in liquid nitrogen. Subsequently, the total RNA of the brain was extracted by means of the High Pure RNA Isolation kit (Roche) and the amount and quality of the RNA were analyzed by means of spectrophotometry (Infinite 200 with NanoQuant, Tecan) and viewing of the 18S and 28S bands by means of electrophoresis. The RT-PCR was performed by means of two steps, first, the mRNA was changed to cDNA using the RNA to cDNA kit (Applied Biosystem) and the gene expression was subsequently analyzed by means of TagMan probes using the validated probes Mn00519071_m1 for seladin-1/DHCR24 and Hs99999901_s1 for 18S (used to normalize the results) in the 7500 Fast Real-Time PCR System equipment (Applied Biosystem). The relative amount of the gene expression was determined by using the ΔΔCt method with the SDS v2.1.1 software (Applied Biosystem); the expression of 18S was used to normalize the measurement."}, "zebrafish larvae": {"system": "zebrafish larvae", "assay": "Acute toxicity assay in zebrafish larvae (24 hours)", "type": "in vivo, Danio rerio", "settings": "for Mortality (dead larvae/total): 1 day", "experimental": "To evaluate the biosafety of compound NST0037, its toxicological effects on the zebrafish larvae model were analyzed by means of determining the safety parameters of the OECD C15 protocol.\nThe fertilized eggs were obtained by natural mating of the zebrafish (Danio rerio, AB strain). A total of 8-10 pairs were used for each cross and a total of 200-250 eggs were generated on average per pair. The eggs were collected immediately after spawning and were washed with dilution water (CaCl2.2H2O2 0.29 g/L, MgSO4.7H2O2 0.12 g/L, NaHCO3 0.065 g/L, KCl 0.006 g/L), the pH being adjusted to 7.8±0.2, in accordance with EC Regulation 440/2008, method C.1, and were deposited in a Petri dish.\nThe embryos were developed normally until 96 hours post-fertilization in their growth medium. […] […]. Each experiment was performed in triplicate.\nThe studies were conducted for 24 hours of treatment, thus performing an acute toxicity assay. […].\nAfter the time of exposure of the substances under study, the record of the mortality of the larvae was determined. […].\n[…]. The percentage of healthy larvae was defined as the number of live larvae without symptoms of external physiopathological anomalies (morphological and/or behavioral), the latter being a parameter determining the biosafety of a substance under study and is complementary to the survival rates and to LD50. […].\nThe anomalies recorded in the study are described below: • Thrombosis in the yolk sac: it is a clot inside a blood vessel, in this case of any vessel irrigating the yolk. • Cardiac thrombosis: occurs in a cardiac vessel. • Cardiac edema (or hydrops): accumulation of fluid in the intercellular tissue space and also in the cavities of the organism. In the case of the heart, it causes the accumulation of fluid in the pericardial sac."}, "[1]": {"system": "FVB/NHan mice inoculated with kainate (KA)", "assay": "Neuropathological signs in hippocampus after kainate (MAP2, HNE, T.U.N.E.L., GFAP)", "type": "in vivo", "settings": "for neuritic dystrophy (MAP2 labeling) in hippocampus: 50 mg/kg i.p., 7 days", "experimental": "All the animals included for the experimental process were 12-week old males of the FVB/NHan strain. The experiments were conducted strictly following the Guidance on the Operation of Animals (Scientific Procedures, Act. 1986). The animals had their respective quarantine period and were treated with maximum precaution to minimize possible contaminations during inoculations and handling.\nTwenty-five animals were used in this assay and the treatments were all conducted by intraperitoneal (i.p.) route with a volume of 100 μl, according to the following regimens: • i) PBS+PBS+PBS regimen: 4 animals were initially treated with PBS with a daily dose for 2 days, on the second day the animals were inoculated with a new dose of PBS and for the next 7 days with a daily dose of PBS. • ii) NST0037+KA+NST0037 regimen: 7 animals were initially treated with a daily dose for 2 days with NST0037 at 50 mg/kg, on the second day the animals were inoculated with a dose of kainate at 25 mg/Kg and for the next 7 days with a daily dose of NST0037 at 50 mg/kg. • iii) PBS+KA+PBS regimen: 7 animals were initially treated with PBS with a daily dose for 2 days, on the second day the animals were inoculated with a dose of kainate at 25 mg/Kg and for the next 7 days with a daily dose of PBS. • iv) PBS+KA+NST0037 regimen: 7 animals were initially treated with PBS with a daily dose for 2 days, on the second day the animals were inoculated with a dose of kainate at 25 mg/Kg and for the next 7 days with a daily dose of NST0037 at 50 mg/kg.\n(§1) Once the treatment time of 7 days ended, the animals were sacrificed and the brains were dissected. The brain samples were processed and included in paraffin. For the analysis of neuritic dystrophy in the hippocampus, bright field immunochemistry against microtubule associated protein type 2 (MAP2) was performed in 5 μm thick coronal sections.\nas §1, with “oxidative damage due to lipid peroxidation” for “neuritic dystrophy”, “4-hydroxynonenal (HNE)” for “microtubule associated protein type 2 (MAP2)”\nOnce the treatment time of 7 days ended, the animals were sacrificed and the brains were dissected. The brain samples were processed and included in paraffin. For the analysis of the presence of neurons in apoptosis in the hippocampus, the T.U.N.E.L. (TdT-mediated dUTP nick end labeling) fluorescence technique was performed in 5 μm thick coronal sections.\nOnce the treatment time of 7 days ended, the animals were sacrificed and the brains were dissected. The brain samples were processed and included in paraffin. The analysis of reactive astrogliosis was performed by means of bright field immunochemistry against Glial fibrillary acidic protein (GFAP) in 5 μm thick coronal sections, which protein is present in astrocytes."}, "[2]": {"system": "C57BL6 mice treated with Triton 1339 (Tyloxapol)", "assay": "Hypocholesterolemic effect in induced hyperlipidemia model (Triton 1339)", "type": "in vivo", "settings": "50 mg/kg i.p.", "experimental": "In order to conduct the experiment on the fasting animals, blood was extracted by ocular puncture. The plasma was obtained from said blood, in which plasma total cholesterol levels and levels of its fractions were determined prior to administration of the substances under study. […] After thirty minutes, the animals were intraperitoneally inoculated with 50 mg/kg of each of the test compounds. Seven animals were treated with the vehicle alone and were considered the control group. […] Finally, a third group of seven mice received 50 mg/Kg of NST0037. Twenty-four hours after the treatments, blood was again extracted from the fasting animals and the plasma was obtained from said blood."}}}
{"smiles": "CCC(CC)C(=O)O[C@H]1C[C@@H](C)C=C2C=C[C@H](C)[C@H](CC[C@@H]3C[C@@H](O)CC(=O)O3)[C@H]21", "note": "[NST0037, (1S,2S,6R,8S,8aR)-1,2,6,7,8,8a-hexahydro-3,7-dimethyl-8-[2-[(2R,4R)-tetrahydro-4-hydroxy-6-oxo-2H-pyran-2-yl]ethyl]-1-naphthalenyl-2-ethyl-butyrate]", "values": [{"measurement": "seladin-1/DHCR24 gene expression in brain", "setting": "seladin-1/DHCR24 gene", "result": "increased the gene expression"}, {"measurement": "Mortality (dead larvae/total)", "setting": "zebrafish larvae; Dose 10 mg/Kg", "result": "0/30"}, {"measurement": "Mortality (dead larvae/total)", "setting": "zebrafish larvae; Dose 30 mg/Kg", "result": "0/30"}, {"measurement": "Mortality (dead larvae/total)", "setting": "zebrafish larvae; Dose 100 mg/Kg", "result": "0/30"}, {"measurement": "Mortality (dead larvae/total)", "setting": "zebrafish larvae; Dose 300 mg/Kg", "result": "0/30"}, {"measurement": "Mortality (dead larvae/total)", "setting": "zebrafish larvae; Dose 1000 mg/Kg", "result": "0/30"}, {"measurement": "percentage of healthy larvae", "setting": "zebrafish larvae; highest study dose (1000 mg/Kg), 24 hours", "result": "67.9±3.3", "unit": "%"}, {"measurement": "apoptosis (T.U.N.E.L.) in hippocampus", "setting": "[1]; NST0037+KA+NST0037 regimen", "result": "did not show neurons positive for T.U.N.E.L."}, {"measurement": "oxidative damage (HNE labeling) in hippocampus", "setting": "[1]; NST0037+KA+NST0037 regimen", "result": "without HNE-labeled neurons"}, {"measurement": "reactive astrogliosis (GFAP) in hippocampus", "setting": "[1]; NST0037+KA+NST0037 regimen", "result": "astrocyte pattern very similar to that of the controls"}, {"measurement": "neuritic dystrophy (MAP2 labeling) in hippocampus", "setting": "[1]; NST0037+KA+NST0037 regimen", "result": "without evidence of neuritic dystrophy"}, {"measurement": "apoptosis (T.U.N.E.L.) in hippocampus", "setting": "[1]; PBS+KA+NST0037 regimen", "result": "reduces the number of neurons in apoptosis to a few isolated cells"}, {"measurement": "oxidative damage (HNE labeling) in hippocampus", "setting": "[1]; PBS+KA+NST0037 regimen", "result": "reduces the number of HNE-labeled neurons"}, {"measurement": "reactive astrogliosis (GFAP) in hippocampus", "setting": "[1]; PBS+KA+NST0037 regimen", "result": "reduces the number of astrocytes and the intensity of the GFAP labeling"}, {"measurement": "neuritic dystrophy (MAP2 labeling) in hippocampus", "setting": "[1]; PBS+KA+NST0037 regimen", "result": "clearly reduces the loss of MAP2 labeling"}, {"measurement": "HDL-c levels", "setting": "[2]; 24 hours after Triton 1339", "result": "not being changed"}, {"measurement": "LDL-c levels", "setting": "[2]; 24 hours after Triton 1339", "result": "reduction being statistically significant"}, {"measurement": "VLDL-c levels", "setting": "[2]; 24 hours after Triton 1339", "result": "Only simvastatin reduced"}, {"measurement": "esterified cholesterol (EC) levels", "setting": "[2]; 24 hours after Triton 1339", "result": "reduced"}, {"measurement": "free cholesterol (FC) levels", "setting": "[2]; 24 hours after Triton 1339", "result": "reduced the levels of this fraction in a similar manner"}, {"measurement": "total cholesterol increase", "setting": "[2]; 24 hours after Triton 1339 500 mg/kg", "result": "hypocholesterolemic effect, being statistically significant"}]}
